Measured values from patent US9441003B2, “Membrane staining dyes containing phosphorescent transition metal polypyridine complexes” (City University of Hong Kong, priority 2014, dated 2016).

Legend:
Assay type in all cases: cell-based
HeLa cells = experiment: Confocal microscopy imaging of HeLa cells treated with complexes; conditions: 50 μM, 37° C., 1 h, excitation 405 nm
Procedure: (§1) Experiments were conducted to show the working of the staining dye of the present invention. HeLa and MCF-7 cells were grown on sterile glass coverslips in a 60-mm tissue culture dish and incubated at 37° C. under a 5% CO2 atmosphere for 48 h. The culture medium was removed and replaced with medium/DMSO (99:1, v/v) containing the complex at a concentration of 50 μM. After incubation for 1 h, the coverslips were washed with PBS (5 mL×3), and then mounted onto slides for measurements. Imaging was performed using a confocal microscope (Leica TCS SPE) with an excitation wavelength at 405 nm. The emission was measured using a long-pass filter at 532 nm. FIG. 6 illustrates experimental results with fluorescence laser-scanning confocal microscopy images of HeLa cells treated with complexes (50 μM) at 37° C. for 1 h. FIG. 7 illustrates experimental results with fluorescence laser-scanning confocal microscopy images of MCF-7 cells treated with complexes (50 μM) at 37° C. for 1 h.

MCF-7 cells [1] = experiment: Confocal microscopy imaging of MCF-7 cells treated with complexes; conditions: 50 μM, 37° C., 1 h, excitation 405 nm
Procedure: as §1

MCF-7 cells [2] = experiment: Co-staining with CellMask deep red plasma membrane stain; conditions: complex 50 μM 1 h, CellMask deep red plasma membrane stain 0.25 μL/ml 5 min
Procedure: Further experiments were conducted to co-stain cells with the complex [Ir(ppyCH2NH—C10)2(bpy-tris)]Cl and the CellMask™ deep red plasma membrane stain. […] Please see FIG. 8 showing fluorescence laser-scanning confocal microscopy images of MCF-7 cells treated with the bpy-tris complex (50 μM, 1 h) and the CellMask™ deep red plasma membrane stain (0.25 μL/ml, 5 min).

| Molecule | cellular staining pattern (membrane staining / localization) (HeLa cells) | cellular staining pattern (membrane staining / localization) (MCF-7 cells [1]) | colocalization coefficient (MCF-7 cells [2]) [%] |
| --- | --- | --- | --- |
| Cc1ccnc(-c2cc(C(=O)O)ccn2)c1 [bpy-COOH] | much better membrane staining | much better membrane staining |  |
| [Ir(ppyCH2NH—C10)2(bpy-tris)]Cl | much better membrane staining | much better membrane staining | 92.9 |
